# PMC9014410, “Discovery of V-0219: A Small-Molecule Positive Allosteric Modulator of the Glucagon-Like Peptide-1 Receptor toward Oral Treatment for “Diabesity”” (Journal of Medicinal Chemistry, 2022)
# Molecular target: hGLP-1R (Homo sapiens, UniProt P43220)
# Assay: cAMP accumulation in HEK-293 cells expressing hGLP-1R (HEK-GLP-1 cells)
# Assay type: cell-based
# Details: HEK293, read-out: Potentiation of GLP-1 Emax at 10 ?M in a cAMP assay (%); 10 ?M compound (supplementary csv)
# Method: After this time the culture medium was replaced by 20 μL fresh Opti-MEM containing 500 μM IBMX and 100 μM K579 and incubated with gentle stirring for 10 min at rt. […] Concentration-response curves were fitted to a 4-parameter logistic equation by using GraphPad Prism 2.1 software.
# hGLP-1R, sequence (P43220 24-463): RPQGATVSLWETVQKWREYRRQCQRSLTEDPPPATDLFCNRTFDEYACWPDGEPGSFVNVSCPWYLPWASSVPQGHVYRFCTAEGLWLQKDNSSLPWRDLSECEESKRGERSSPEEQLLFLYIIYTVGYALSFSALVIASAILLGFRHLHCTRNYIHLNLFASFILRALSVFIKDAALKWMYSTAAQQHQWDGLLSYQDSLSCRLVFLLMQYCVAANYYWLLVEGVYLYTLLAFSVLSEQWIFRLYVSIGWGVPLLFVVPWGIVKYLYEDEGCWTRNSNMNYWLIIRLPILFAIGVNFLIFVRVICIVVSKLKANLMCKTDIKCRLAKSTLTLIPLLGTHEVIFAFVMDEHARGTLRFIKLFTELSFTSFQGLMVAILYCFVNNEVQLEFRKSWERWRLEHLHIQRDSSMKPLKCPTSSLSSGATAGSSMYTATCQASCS
row,Emax [%],SMILES
1,< 30,CS(=O)(=O)NC(=O)CC1CCN(Cc2nc(-c3ccc(C(F)(F)F)cc3)no2)CC1 [S52]
2,< 30,N#Cc1cccc(S(=O)(=O)NCC2CCN(Cc3nc(-c4ccc(C(F)(F)F)cc4)no3)CC2)c1 [S26]
3,< 30,CCCS(=O)(=O)NCC1CCN(Cc2nc(-c3ccc(C(F)(F)F)cc3)no2)CC1 [S21]
4,< 30,COc1ccccc1-c1noc(CN2CCCC(CN3CCOCC3)C2)n1 (centres unmarked) [S70]
5,< 30,O=C(CC1CCN(Cc2nc(-c3ccc(C(F)(F)F)cc3)no2)CC1)NS(=O)(=O)c1ccc(OC(F)(F)F)cc1 [S63]
6,< 30,N#Cc1cccc(S(=O)(=O)NC2CCN(Cc3nc(-c4ccc(C(F)(F)F)cc4)no3)CC2)c1 [S8]
7,< 30,FC(F)(F)c1ccccc1-c1noc(CN2CCCC(CN3CCOCC3)C2)n1 (centres unmarked) [S65]
8,< 30,O=S(=O)(NCC1CCN(Cc2nc(-c3ccc(C(F)(F)F)cc3)no2)CC1)c1ccc(Cl)cc1 [S30]
9,< 30,O=S(=O)(NC1CCN(Cc2nc(-c3ccc(C(F)(F)F)cc3)no2)CC1)c1ccccc1F [S12]
10,< 30,COc1ccc(Br)cc1S(=O)(=O)NC1CCN(Cc2nc(-c3ccc(C(F)(F)F)cc3)no2)CC1 [S18]
11,< 30,Clc1ccc(-c2noc(CN3CCCC(CN4CCOCC4)C3)n2)cc1 (centres unmarked) [S81]
12,< 30,O=S(=O)(NCC1CCN(Cc2nc(-c3ccc(C(F)(F)F)cc3)no2)CC1)c1ccccc1Cl [S28]
13,< 30,O=S(=O)(NC1CCN(Cc2nc(-c3ccc(C(F)(F)F)cc3)no2)CC1)c1ccc(F)cc1 [S14]
14,< 30,O=C(NS(=O)(=O)c1ccccc1Cl)C1CCN(Cc2nc(-c3ccc(C(F)(F)F)cc3)no2)CC1 [S44]
15,< 30,Cc1ccc([N+](=O)[O-])cc1S(=O)(=O)NC1CCN(Cc2nc(-c3ccc(C(F)(F)F)cc3)no2)CC1 [S19]
16,< 30,Cc1ccccc1S(=O)(=O)NC(=O)CC1CCN(Cc2nc(-c3ccc(C(F)(F)F)cc3)no2)CC1 [S60]
17,< 30,COc1ccc(S(=O)(=O)NCC2CCN(Cc3nc(-c4ccc(C(F)(F)F)cc4)no3)CC2)cc1 [S34]
18,< 30,Cc1cccc(-c2noc(CN3CCCC(CN4CCOCC4)C3)n2)c1 (centres unmarked) [S68]
19,< 30,O=S(=O)(NC1CCN(Cc2nc(-c3ccc(C(F)(F)F)cc3)no2)CC1)c1ccc(OC(F)(F)F)cc1 [S17]
20,< 30,CCCS(=O)(=O)NC1CCN(Cc2nc(-c3ccc(C(F)(F)F)cc3)no2)CC1 [S2]
21,< 30,O=C(NS(=O)(=O)c1ccc(C(F)(F)F)cc1)C1CCN(Cc2nc(-c3ccc(C(F)(F)F)cc3)no2)CC1 [S49]

row,Emax [%],SMILES
1,< 30,CNc1cccc(-c2noc(CN3CCCC(CN4CCOCC4)C3)n2)c1 (centres unmarked) [S74]
2,< 30,O=C(CC1CCN(Cc2nc(-c3ccc(C(F)(F)F)cc3)no2)CC1)NS(=O)(=O)c1ccc(F)cc1 [S57]
3,< 30,COC(=O)c1cccc(-c2noc(CN3CCCC(CN4CCOCC4)C3)n2)c1 (centres unmarked) [S82]
4,< 30,CC(=O)c1cccc(S(=O)(=O)NC2CCN(Cc3nc(-c4ccc(C(F)(F)F)cc4)no3)CC2)c1 [S4]
5,< 30,COc1ccc(S(=O)(=O)NC(=O)CC2CCN(Cc3nc(-c4ccc(C(F)(F)F)cc4)no3)CC2)cc1 [S61]
6,< 30,Clc1ccccc1-c1noc(CN2CCCC(CN3CCOCC3)C2)n1 (centres unmarked) [S79]
7,< 30,CS(=O)(=O)NC1CCN(Cc2nc(-c3ccc(C(F)(F)F)cc3)no2)CC1 [S1]
8,< 30,O=C(NS(=O)(=O)Cc1ccccc1)C1CCN(Cc2nc(-c3ccc(C(F)(F)F)cc3)no2)CC1 [S39]
9,< 30,O=C(CC1CCN(Cc2nc(-c3ccc(C(F)(F)F)cc3)no2)CC1)NS(=O)(=O)Cc1ccccc1 [S54]
10,< 30,O=S(=O)(NC1CCN(Cc2nc(-c3ccc(C(F)(F)F)cc3)no2)CC1)c1ccc(C(F)(F)F)cc1 [S16]
11,< 30,O=[N+]([O-])c1ccccc1S(=O)(=O)NC1CCN(Cc2nc(-c3ccc(C(F)(F)F)cc3)no2)CC1 [S5]
12,< 30,N#Cc1ccc(S(=O)(=O)NCC2CCN(Cc3nc(-c4ccc(C(F)(F)F)cc4)no3)CC2)cc1 [S27]
13,< 30,Cc1ccc(-c2noc(CN3CCCC(CN4CCOCC4)C3)n2)cc1 (centres unmarked) [S69]
14,< 30,O=S(=O)(NCC1CCN(Cc2nc(-c3ccc(C(F)(F)F)cc3)no2)CC1)c1ccc(OC(F)(F)F)cc1 [S36]
15,< 30,O=S(=O)(NCC1CCN(Cc2nc(-c3ccc(C(F)(F)F)cc3)no2)CC1)c1ccc(C(F)(F)F)cc1 [S35]
16,< 30,NC(=O)c1ccc(-c2noc(CN3CCCC(CN4CCOCC4)C3)n2)cc1 (centres unmarked) [S85]
17,< 30,Fc1ccccc1-c1noc(CN2CCCC(CN3CCOCC3)C2)n1 (centres unmarked) [S76]
18,< 30,N#Cc1ccccc1S(=O)(=O)NC1CCN(Cc2nc(-c3ccc(C(F)(F)F)cc3)no2)CC1 [S7]
19,< 30,CS(=O)(=O)NCC1CCN(Cc2nc(-c3ccc(C(F)(F)F)cc3)no2)CC1 [S20]
20,< 30,COc1ccc(-c2noc(CN3CCCC(CN4CCOCC4)C3)n2)cc1 (centres unmarked) [S72]
21,< 30,O=S(=O)(Cc1ccccc1)NCC1CCN(Cc2nc(-c3ccc(C(F)(F)F)cc3)no2)CC1 [S22]

row,Emax [%],SMILES
1,< 30,O=[N+]([O-])c1ccc(S(=O)(=O)NC2CCN(Cc3nc(-c4ccc(C(F)(F)F)cc4)no3)CC2)cc1 [S6]
2,< 30,CCCS(=O)(=O)NC(=O)CC1CCN(Cc2nc(-c3ccc(C(F)(F)F)cc3)no2)CC1 [S53]
3,< 30,O=C(NS(=O)(=O)c1ccc(F)cc1)C1CCN(Cc2nc(-c3ccc(C(F)(F)F)cc3)no2)CC1 [S43]
4,< 30,CNC(=O)c1ccc(-c2noc(CN3CCCC(CN4CCOCC4)C3)n2)cc1 (centres unmarked) [S87]
5,< 30,FC(F)(F)c1cccc(-c2noc(CN3CCCC(CN4CCOCC4)C3)n2)c1 (centres unmarked) [S66]
6,< 30,Clc1cccc(-c2noc(CN3CCCC(CN4CCOCC4)C3)n2)c1 (centres unmarked) [S80]
7,< 30,O=C(CC1CCN(Cc2nc(-c3ccc(C(F)(F)F)cc3)no2)CC1)NS(=O)(=O)c1ccc(C(F)(F)F)cc1 [S62]
8,< 30,O=C(CC1CCN(Cc2nc(-c3ccc(C(F)(F)F)cc3)no2)CC1)NS(=O)(=O)c1cccc(F)c1 [S56]
9,< 30,O=C(NS(=O)(=O)c1ccc(Cl)cc1)C1CCN(Cc2nc(-c3ccc(C(F)(F)F)cc3)no2)CC1 [S46]
10,< 30,O=C(NS(=O)(=O)c1ccccc1F)C1CCN(Cc2nc(-c3ccc(C(F)(F)F)cc3)no2)CC1 [S41]
11,< 30,O=S(=O)(NC1CCN(Cc2nc(-c3ccc(C(F)(F)F)cc3)no2)CC1)c1ccc(Cl)cc1 [S11]
12,< 30,CNC(=O)c1cccc(-c2noc(CN3CCCC(CN4CCOCC4)C3)n2)c1 (centres unmarked) [S86]
13,< 30,NC(=O)c1cccc(-c2noc(CN3CCCC(CN4CCOCC4)C3)n2)c1 (centres unmarked) [S84]
14,< 30,COc1cccc(-c2noc(CN3CCCC(CN4CCOCC4)C3)n2)c1 (centres unmarked) [S71]
15,< 30,Cc1ccccc1S(=O)(=O)NC(=O)C1CCN(Cc2nc(-c3ccc(C(F)(F)F)cc3)no2)CC1 [S47]
16,< 30,Cc1ccccc1S(=O)(=O)NCC1CCN(Cc2nc(-c3ccc(C(F)(F)F)cc3)no2)CC1 [S33]
17,< 30,COc1ccc(Br)cc1S(=O)(=O)NC(=O)CC1CCN(Cc2nc(-c3ccc(C(F)(F)F)cc3)no2)CC1 [S64]
18,< 30,N#Cc1ccccc1S(=O)(=O)NCC1CCN(Cc2nc(-c3ccc(C(F)(F)F)cc3)no2)CC1 [S25]
19,< 30,COc1ccc(Br)cc1S(=O)(=O)NC(=O)C1CCN(Cc2nc(-c3ccc(C(F)(F)F)cc3)no2)CC1 [S51]
20,< 30,CNc1ccccc1-c1noc(CN2CCCC(CN3CCOCC3)C2)n1 (centres unmarked) [S73]
21,< 30,O=S(=O)(NCC1CCN(Cc2nc(-c3ccc(C(F)(F)F)cc3)no2)CC1)c1cccc(Cl)c1 [S29]

row,Emax [%],SMILES
1,< 30,CNc1ccc(-c2noc(CN3CCCC(CN4CCOCC4)C3)n2)cc1 (centres unmarked) [S75]
2,< 30,O=S(=O)(Cc1ccccc1)NC1CCN(Cc2nc(-c3ccc(C(F)(F)F)cc3)no2)CC1 [S3]
3,< 30,CC(=O)c1cccc(S(=O)(=O)NC(=O)C2CCN(Cc3nc(-c4ccc(C(F)(F)F)cc4)no3)CC2)c1 [S40]
4,< 30,O=S(=O)(NC1CCN(Cc2nc(-c3ccc(C(F)(F)F)cc3)no2)CC1)c1cccc(Cl)c1 [S10]
5,< 30,CCCS(=O)(=O)NC(=O)C1CCN(Cc2nc(-c3ccc(C(F)(F)F)cc3)no2)CC1 [S38]
6,< 30,CC(=O)c1cccc(S(=O)(=O)NC(=O)CC2CCN(Cc3nc(-c4ccc(C(F)(F)F)cc4)no3)CC2)c1 [S55]
7,< 30,O=C(NS(=O)(=O)c1cccc(F)c1)C1CCN(Cc2nc(-c3ccc(C(F)(F)F)cc3)no2)CC1 [S42]
8,< 30,N#Cc1ccc(S(=O)(=O)NC2CCN(Cc3nc(-c4ccc(C(F)(F)F)cc4)no3)CC2)cc1 [S9]
9,< 30,CC(=O)c1cccc(S(=O)(=O)NCC2CCN(Cc3nc(-c4ccc(C(F)(F)F)cc4)no3)CC2)c1 [S23]
10,< 30,O=C(CC1CCN(Cc2nc(-c3ccc(C(F)(F)F)cc3)no2)CC1)NS(=O)(=O)c1ccc(Cl)cc1 [S59]
11,< 30,Cc1ccccc1-c1noc(CN2CCCC(CN3CCOCC3)C2)n1 (centres unmarked) [S67]
12,< 30,Fc1cccc(-c2noc(CN3CCCC(CN4CCOCC4)C3)n2)c1 (centres unmarked) [S77]
13,< 30,O=C(CC1CCN(Cc2nc(-c3ccc(C(F)(F)F)cc3)no2)CC1)NS(=O)(=O)c1cccc(Cl)c1 [S58]
14,< 30,O=S(=O)(NC1CCN(Cc2nc(-c3ccc(C(F)(F)F)cc3)no2)CC1)c1cccc(F)c1 [S13]
15,< 30,CCS(=O)(=O)NC(=O)C1CCN(Cc2nc(-c3ccc(C(F)(F)F)cc3)no2)CC1 [S37]
16,< 30,COC(=O)c1ccc(-c2noc(CN3CCCC(CN4CCOCC4)C3)n2)cc1 (centres unmarked) [S83]
17,< 30,O=S(=O)(NCC1CCN(Cc2nc(-c3ccc(C(F)(F)F)cc3)no2)CC1)c1cccc(F)c1 [S31]
18,< 30,O=S(=O)(NCC1CCN(Cc2nc(-c3ccc(C(F)(F)F)cc3)no2)CC1)c1ccc(F)cc1 [S32]
19,< 30,COc1ccc(S(=O)(=O)NC(=O)C2CCN(Cc3nc(-c4ccc(C(F)(F)F)cc4)no3)CC2)cc1 [S48]
20,< 30,Cc1ccccc1S(=O)(=O)NC1CCN(Cc2nc(-c3ccc(C(F)(F)F)cc3)no2)CC1 [S15]
